The values below come from patent publication US9145414B2, “1,2,4-triazine-6-carboxamide derivative” (TAIHO PHARMACEUTICAL CO., LTD., priority 2011, dated 2015).

The target in one test is human Syk protein (Homo sapiens (Human), UniProt P43405). The test can be described thus: Syk kinase inhibition test. It is filed as biochemical. As to conditions: read-out: SYK inhibitory activity IC50. The method, then: Finally, phosphorylated peptides and non-phosphorylated peptides were separated therebetween using LabChip™ 3000 system (Caliper Life Sciences, Inc., excitation wavelength: 488 nm, detection wavelength: 530 nm). Their respective amounts were measured, and the rate of phosphorylation reaction was then determined from the ratio between the amounts. The concentration at which the compound can inhibit 50% phosphorylation reaction is defined as an IC50 value (μM).
Also, known 1,2,4-triazine-6-carboxamide derivatives A, B, and C (WO2000/075113 (A: compound No. 121 and B: compound No. 154) and WO2000/076980 (C: compound No. 39)) were synthesized as control compounds. Their IC50 values (μM) were calculated in the same way as above and then compared with that of the compound of the present invention.

Test [1] relates to SU-DHL-6 cells (diffuse large-cell lymphoma cell line). The test can be described thus: Cell growth inhibition test. It is filed as cell-based. Particulars: read-out: Cell growth inhibition IC50. The method, then: The compound of the present invention was serially diluted with dimethyl sulfoxide and then added to an RPMI1640 medium containing 10% FBS. Each resulting solution was added at a concentration of 100 μl/well to the preceding SU-DHL-6 cell culture plate (final concentration of the compound: 10, 3, 1, 0.3, 0.1, 0.03, 0.01, and 0.003 μM). The cells were cultured at 37° C. for 3 days in an incubator containing 5% CO2. The cells thus cultured were left at room temperature for 30 minutes and then centrifuged at 1500 rpm for 3 minutes using a centrifuge (Hitachi Koki Co., Ltd., Himac CF7D2). A 100 μl aliquot of the supernatant was removed from each well to allow 100 μl of the cell culture solution to remain therein. This 100 μl of the remaining cell culture solution was supplemented with an equal amount of CellTiter-Glo Luminescent Cell Viability Assay (Promega KK, Cat#: G7573), and the mixture was then shaken for 1 minute using a plate mixer. The reaction solution was left in the dark for 10 minutes. Then, luminescence intensity derived from live cells of each well was measured using a microplate reader (PerkinElmer Inc., ARVOsx). […] Likewise, the IC50 values (μM) of the control compounds were also calculated and then compared with that of the compound of the present invention. Rate of cell growth inhibition(%)=(C−T)/C×100 T: luminescence intensity (count per second) of a well supplemented with the test compound C: luminescence intensity (count per second) of a well non-supplemented with the test compound

The subject of test [2] is recombinant human Aurora B protein. Description: Aurora B kinase activity inhibitory effect. It counts as biochemical. Particulars: Aurora B IC50 relative to Syk IC50. The method, then: (§1) The reaction solution was left standing in the dark at room temperature for 120 minutes. Then, fluorescence polarization values obtained by measurement using PHERAstar (BMG LABTECH JAPAN Ltd., excitation wavelength: 485 nm, detection wavelength: 520 nm) were used to determine the rate of phosphorylation reaction.

In test [3] the target is recombinant human Aurora B protein (Homo sapiens (Human), UniProt Q96GD4). The test can be described thus: Aurora B kinase activity inhibitory effect. It counts as biochemical. Particulars: Table 97; read-out: AuroraB inhibitory activity IC50. The method, then:
as §1

The target in test [4] is recombinant human KDR protein (Homo sapiens (Human), UniProt P35968). The test can be described thus: KDR kinase activity inhibitory effect. Particulars: for KDR inhibitory activity: Selectivity for Syk: KDR IC50 relative to Syk IC50; for IC50: Table 97. It counts as biochemical. The method, then: The purified recombinant human KDR protein used in the test is a house purified product. […] The mixture was incubated at 30° C. for 180 minutes to perform kinase reaction. […] Their respective amounts were measured, and the rate of phosphorylation reaction was then determined from the ratio between the amounts.
recombinant human KDR protein, sequence (P35968 20-1356): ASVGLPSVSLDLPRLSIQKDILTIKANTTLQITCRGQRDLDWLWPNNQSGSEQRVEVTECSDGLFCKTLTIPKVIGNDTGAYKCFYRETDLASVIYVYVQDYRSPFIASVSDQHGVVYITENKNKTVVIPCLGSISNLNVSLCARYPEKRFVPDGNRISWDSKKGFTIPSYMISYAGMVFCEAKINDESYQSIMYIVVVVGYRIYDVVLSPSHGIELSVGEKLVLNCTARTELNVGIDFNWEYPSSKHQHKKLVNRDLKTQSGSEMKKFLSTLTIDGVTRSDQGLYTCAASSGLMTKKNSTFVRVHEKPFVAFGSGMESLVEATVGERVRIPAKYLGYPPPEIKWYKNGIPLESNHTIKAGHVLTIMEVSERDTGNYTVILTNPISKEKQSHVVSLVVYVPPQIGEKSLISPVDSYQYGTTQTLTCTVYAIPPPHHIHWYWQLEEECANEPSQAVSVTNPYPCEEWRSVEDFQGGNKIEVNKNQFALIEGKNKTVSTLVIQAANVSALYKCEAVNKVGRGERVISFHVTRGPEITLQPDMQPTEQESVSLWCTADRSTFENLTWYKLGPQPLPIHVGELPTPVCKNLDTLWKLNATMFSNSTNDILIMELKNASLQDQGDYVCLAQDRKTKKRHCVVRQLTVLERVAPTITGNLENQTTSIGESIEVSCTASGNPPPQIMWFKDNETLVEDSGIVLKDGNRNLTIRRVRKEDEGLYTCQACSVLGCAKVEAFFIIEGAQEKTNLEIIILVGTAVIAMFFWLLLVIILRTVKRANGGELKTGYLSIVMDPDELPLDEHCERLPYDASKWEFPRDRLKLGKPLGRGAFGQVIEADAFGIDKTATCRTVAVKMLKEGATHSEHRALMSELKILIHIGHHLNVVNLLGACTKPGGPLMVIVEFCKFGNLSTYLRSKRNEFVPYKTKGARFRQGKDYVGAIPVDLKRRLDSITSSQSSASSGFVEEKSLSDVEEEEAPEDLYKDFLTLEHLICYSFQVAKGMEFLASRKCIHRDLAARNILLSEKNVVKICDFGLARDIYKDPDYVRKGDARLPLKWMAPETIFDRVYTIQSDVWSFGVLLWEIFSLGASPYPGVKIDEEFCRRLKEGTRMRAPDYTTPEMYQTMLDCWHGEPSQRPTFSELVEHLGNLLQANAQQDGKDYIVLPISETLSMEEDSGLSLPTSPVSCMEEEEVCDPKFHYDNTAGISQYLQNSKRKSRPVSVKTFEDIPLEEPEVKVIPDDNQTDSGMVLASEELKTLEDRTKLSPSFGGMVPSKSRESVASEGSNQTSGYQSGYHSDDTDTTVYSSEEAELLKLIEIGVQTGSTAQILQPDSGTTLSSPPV

Where [5] appears, read: Homo sapiens, 72 h, SU-DHL-6 cells, 3 days culture, Table 96.

Like-named read-outs stand apart in the source and are kept apart here.

recombinant human Aurora B protein (Homo sapiens (Human), UniProt Q96GD4), sequence (Q96GD4 whole entry): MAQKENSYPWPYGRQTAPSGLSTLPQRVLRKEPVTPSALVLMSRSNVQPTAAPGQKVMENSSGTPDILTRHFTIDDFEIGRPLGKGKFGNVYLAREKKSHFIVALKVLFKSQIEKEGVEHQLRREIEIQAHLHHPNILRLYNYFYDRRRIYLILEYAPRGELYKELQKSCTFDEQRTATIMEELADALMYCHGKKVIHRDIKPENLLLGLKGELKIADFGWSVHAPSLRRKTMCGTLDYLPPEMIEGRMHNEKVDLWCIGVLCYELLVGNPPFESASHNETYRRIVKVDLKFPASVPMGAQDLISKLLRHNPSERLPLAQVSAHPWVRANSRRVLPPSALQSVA

As a reminder, the IC50 is the concentration that gives 50% inhibition. Take `NC(=O)c1nnc(N[C@@H]2CCCC[C@@H]2N)nc1Nc1cc2ccccc2s1` [Example 161]: the IC50 on human Syk protein (Table 95) is 0.28 nM; at human Syk protein (Table 97), 0.28 nM; in test [1] (setting [5]), 27 nM; in test [3], 420 nM; in test [4], above 2000 nM. Besides, in test [2], the “AuroraB inhibitory activity: Selectivity for Syk” value is “(1500 times)”. Further, the “KDR inhibitory activity: Selectivity for Syk” value in test [4] is “(>7000 times)”.
For the compound `Cn1cc(-n2ccc3c(Nc4nc(N[C@@H]5CCCC[C@@H]5N)nnc4C(N)=O)cccc32)cn1` [Example 67, 3-(((1R,2S)-2-aminocyclohexyl)amino)-5-((1-(1-methyl-1H-pyrazol-4-yl)-1H-indol-4-yl)amino)-1,2,4-triazine-6-carboxamide], the IC50 turned out to be 0.26 nM at human Syk protein (Table 95) and 49 nM in test [1] (setting [5]).
The matching figures for `NC(=O)c1nnc(N[C@@H]2CCCC[C@@H]2N)nc1Nc1csc2ccccc12` [Example 212]: 0.29 nM and 128 nM.
Regarding `NC(=O)c1nnc(N[C@@H]2CCOC[C@@H]2N)nc1Nc1ccc2cnn(C(F)F)c2c1` [Example 170], the concentration for half-maximal inhibition (IC50) at human Syk protein (Table 95) is 0.58 nM; in test [1] (setting [5]), 178 nM.
On to `NC(=O)c1nnc(N[C@@H]2CCCC[C@@H]2N)nc1Nc1cc(-c2ccccc2)cs1` [Example 164], for which the IC50 is 0.29 nM at human Syk protein (Table 95) and 92 nM in test [1] (setting [5]).
On to `NC(=O)c1ccc(NC2CCCCC2N)cc1Nc1cccc2c1OCO2` (stereo not drawn) [B, reference compound], for which the IC50 at human Syk protein (Table 95) turned out to be 6.8 nM; in test [1] (SU-DHL-6 cells, 3 days culture, Table 96) it was 1900 nM.
Regarding `COC[C@H](N)[C@@H](C)Nc1nnc(C(N)=O)c(Nc2cc(C)cc3c2ccn3C)n1` [Example 256, 3-(((2R,3R)-3-amino-4-methoxybutan-2-yl)amino)-5-((1,6-dimethyl-1H-indol-4-yl)amino)-1,2,4-triazine-6-carboxamide], the IC50 on human Syk protein (Table 95) amounted to 0.35 nM; in test [1] (setting [5]) it was 157 nM.
As for `NC(=O)c1nnc(N[C@@H]2CCCC[C@@H]2N)nc1Nc1ccc2cn(C(F)F)nc2c1` [Example 24, 3-((1R,2S)-2-aminocyclohexylamino)-5-(2-(difluoromethyl)-2H-indazol-6-ylamino)-1,2,4-triazine-6-carboxamide], the IC50 was 0.53 nM at human Syk protein (Table 95); 0.53 nM on human Syk protein (Table 97); 152 nM in test [1] (setting [5]); above 10000 nM in test [3]; above 10000 nM in test [4]. The “AuroraB inhibitory activity: Selectivity for Syk” value in test [2] is “(>20000 times)”. The “KDR inhibitory activity: Selectivity for Syk” value in test [4] is on record as “(>20000 times)”.
Turning to `CCn1ncc2ccc(Nc3nc(N[C@@H]4CCCC[C@@H]4N)nnc3C(N)=O)cc21` [Example 154], the IC50 on human Syk protein (Table 95) came out at 0.43 nM; in test [1] (setting [5]), 138 nM.
In the case of `CC[C@H](N)CNc1nnc(C(N)=O)c(Nc2cccc3sccc23)n1` [Example 245], the IC50 on human Syk protein (Table 95) turned out to be 0.35 nM; in test [1] (setting [5]) it was 158 nM.
Take `Cc1cc(Nc2nc(N[C@@H]3CCCC[C@@H]3N)nnc2C(N)=O)cc2cccnc12` [Example 259, 3-(((1R,2S)-2-aminocyclohexyl)amino)-5-((8-methylquinolin-6-yl)amino)-1,2,4-triazine-6-carboxamide]: the IC50 at human Syk protein (Table 95) is 0.33 nM; in test [1] (setting [5]), 75 nM.
On to `Cn1cc2cc(Nc3nc(N[C@@H]4CCOC[C@@H]4N)nnc3C(N)=O)cc(-c3ccccc3)c2n1` [Example 257, 3-(((3R,4R)-3-aminotetrahydro-2H-pyran-4-yl)amino)-5-((2-methyl-7-phenyl-2H-indazol-5-yl)amino)-1,2,4-triazine-6-carboxamide], for which the IC50 came to 0.38 nM at human Syk protein (Table 95) and 49 nM in test [1] (setting [5]).
The matching figures for `CCn1cc2cc(Nc3nc(N[C@@H]4CCCC[C@@H]4N)nnc3C(N)=O)cc(-n3cccn3)c2n1` [Example 79, 3-(((1R,2S)-2-aminocyclohexyl)amino)-5-((2-ethyl-7-(1H-pyrazol-1-yl)-2H-indazol-5-yl)amino)-1,2,4-triazine-6-carboxamide]: 0.37 nM and 93 nM.
With `[2H]C([2H])([2H])C([2H])([2H])n1ncc2cc(Nc3nc(N[C@H]4CCCNC4)nnc3C(N)=O)ccc21` [Example 7, (S)-5-(1-(ethyl-d5)-1H-indazol-5-ylamino)-3-(piperidin-3-ylamino)-1,2,4-triazine-6-carboxamide diformate], the half-maximal inhibitory concentration (IC50) is 0.92 nM at human Syk protein (Table 95) and 174 nM in test [1] (Homo sapiens, SU-DHL-6, 72 h).
For the compound `NC(=O)c1nnc(N[C@@H]2CCOC[C@@H]2N)nc1Nc1cccc2c1ccn2C1CCC1` [Example 277], the IC50 was 0.41 nM on human Syk protein (Table 95) and 181 nM in test [1] (setting [5]).
The corresponding values for `NC(=O)c1nnc(N[C@@H]2CCCC[C@@H]2N)nc1Nc1ccc2sccc2c1` [Example 220] are 0.26 nM and 180 nM.
For the compound `NC(=O)c1nnc(N[C@@H]2CCOC[C@@H]2N)nc1Nc1cccc2c1ccn2C1CC1` [Example 160], the IC50 on human Syk protein (Table 95) came to 0.38 nM; on human Syk protein (Table 97) it was 0.38 nM; in test [1] (setting [5]) it was 165 nM; in test [3], 1300 nM; in test [4], 1400 nM. The “AuroraB inhibitory activity: Selectivity for Syk” value in test [2] is listed as “(4100 times)”. The “KDR inhibitory activity: Selectivity for Syk” value in test [4] is “(4400 times)”.
Regarding `COC[C@H](N)[C@@H](C)Nc1nnc(C(N)=O)c(Nc2cc(-c3ccccc3)c3nn(C)cc3c2)n1` [Example 258], the values for the half-maximal inhibitory concentration (IC50) (at human Syk protein (Table 95); in test [1] (setting [5])) were 0.29 nM and 60 nM, respectively.
`Cc1cc(Nc2nc(N[C@@H]3CCCC[C@@H]3N)nnc2C(N)=O)cc2nn(C)cc12` [Example 91, 3-(((1R,2S)-2-aminocyclohexyl)amino)-5-((2,4-dimethyl-2H-indazol-6-yl)amino)-1,2,4-triazine-6-carboxamide diformate]: the IC50 at human Syk protein (Table 95) came out at 0.26 nM; in test [1] (setting [5]), 138 nM.
On to `NC(=O)c1nnc(N[C@@H]2CCCC[C@@H]2N)nc1Nc1ccc2nn(C(F)F)cc2c1` [Example 57, 3-((1R,2S)-2-aminocyclohexylamino)-5-(2-(difluoromethyl)-2H-indazol-5-ylamino)-1,2,4-triazine-6-carboxamide], for which the IC50 was 0.52 nM at human Syk protein (Table 95) and 179 nM in test [1] (setting [5]).
With `NC(=O)c1nnc(N[C@@H]2CCCC[C@@H]2N)nc1Nc1cc(-c2ccccn2)cs1` [Example 77, 3-(((1R,2S)-2-aminocyclohexyl)amino)-5-((4-(pyridin-2-yl)thiophen-2-yl)amino)-1,2,4-triazine-6-carboxamide], the results for the IC50 (at human Syk protein (Table 95); in test [1] (setting [5])) were 0.42 nM and 82 nM, respectively.
